Key:
[1] = tested on: potential-dependent cation channel of isolated olfactory cells; assay: Test for measuring potential-dependent cation channel activity (whole-cell recording, inward current on depolarization); format: cell-based, Japanese fire belly newt (Cynops pyrrhogaster); details: for Channel suppression ratio (inward current suppression ratio): Reference Example, concentration not given; for Inhibition ratio (%) (inward current suppression ratio): depolarization -90 mV to -20 mV, newt olfactory cells
Procedure: 1. Isolation of Olfactory Cells
To briefly explain the method of isolation, each newt which had been hibernated in ice-water was double-pithed, and the cranium was cut open to remove olfactory mucosa. The removed olfactory mucosa was incubated in a 0.1% collagenase solution at 37° C. for 5 minutes, and collagenase was washed off. Subsequently, the mucosal tissue was crushed by means of a glass pipette to thereby isolate cells. As the normal Ringer's solution, a solution of 110 mM NaCl, 3.7 mM KCl, 3 mM CaCl2, 1 mM MgCl2, 15 mM glucose, 1 mM sodium pyruvate, 10 mM HEPES, and 0.001% (w/v) Phenol Red, at pH 7.4 (adjusted with NaOH), was used.
2. Measurement of Electrical Activity [A. Setting] […] A borosilicate glass capillary (diameter: 1.2 mm) was used as the electrode, and the electrode was produced using a puller for electrode fabrication (P-97, Sutter Instrument Co.) (electrode resistance: approximately 6.0 MΩ). An electrode filling solution and a silver-silver chloride wire were inserted into the electrode, the silver-silver chloride wire was connected to a patch clamp amplifier (EPC10, HEKA), and thus fixation of the membrane potential and depolarization simulation were performed. […] The recording of the membrane current was performed using a computer (IBM-compatible) connected to the patch clamp amplifier (sampling frequency: 1 kHz), and Patch Master software (HEKA) was used for the measurement and analysis. The addition (spraying) of a test substance was carried out using a pressure controller.
[B. Procedure] In order to investigate the effect of each of the test substances described above (see Table 1) on the potential-dependent cation channel activity, the membrane potential of the isolated olfactory cells was fixed at −90 mV, and the membrane potential was depolarized to −20 mV for 20 milliseconds at an interval of 200 milliseconds. The peak intensity of the inward current produced immediately after depolarization (FIG. 1. |a|=[Inward current value produced immediately after depolarization]−[baseline value]) was measured. While depolarization stimulation was continuously repeated, the test substance was adjusted to the various concentrations indicated in Table 1 using normal Ringer's solution, and the mixture was added to the olfactory cells by spraying the mixture (for 650 milliseconds, pressure: 100 kPa) through a glass pipette (tip diameter: 1 μm) that was placed such that the tip of the pipette was located in the vicinity (10 μm) of the olfactory cells . The change in the inward current (FIG. 1, |b|=[Inward current value when the peak intensity was most suppressed]−[baseline value]) resulting from the spraying was investigated. This spraying was carried out continuous for 5 times. Furthermore, the average value A of the peak intensities (a) of the inward current produced by the depolarization immediately before the addition of an extract, and the average value B of the peak intensities (b) of the inward current produced by the depolarization immediately after the addition of an extract were calculated.
The CNG channel current can be easily distinguished from the potential-dependent channel current, in terms of the intensity, peak shape, duration and the like.
The “inward current suppression ratio (%)” was calculated from the “B: average value of the inward current value (b) when the peak intensity was most suppressed” and the “A: average value of the inward current value (a) produced immediately after the depolarization immediately before the addition of an extract,” as shown in the following formula.

[2] = Olfaction masking test by sensory evaluation, hexanoic acid as malodorous substance; format: in vivo, human beings; details: 10 panelists, hexanoic acid 10%, 20 μL, same cotton ball
Procedure: An olfaction masking test based on sensory evaluation was carried out with 10 panelists. […] The cotton ball was placed in a 50-mL container, and the malodorous substance was volatilized overnight at room temperature.
The evaluation was carried out such that each panelist smelled the odor in the container, and determined the strength of masking of hexanoic acid by the addition of the adamantane derivatives. The intensity of odor of simple hexanoic acid was set to 5.0, which is an intermediate point among the 21 grades of evaluation criteria (0: no odor, 10: strong odor).

[3] = Sensory evaluation olfaction masking test, isovaleric acid as malodorous substance; format: in vivo; details: 20 panelists; isovaleric acid 1%, 2 μL; test solution 0.1%, 4 μL; six-grade score 0 (masking not achieved) to 5 (perfect masking)
Procedure: [Sensory evaluation test]
An olfaction masking test based on sensory evaluation was carried out with 20 panelists.
2 μL of the malodorous substance and 4 μL of a test solution of each of the test compounds indicated in Table 3 at a concentration of 0.1% were impregnated into separate cotton balls (diameter: 1 cm), and the substances were volatilized for 12 hours at room temperature in each of separate 50-mL injection syringes. The isovaleric acid and test compound volatilized in the syringe were injected into a PP container (capacity: 500 mL) with a cap and were mixed in the container.
The evaluation was carried out such that each panelist slightly opened the cap of the PP container and smelled the odor in the container, and the panelist determined the masking strength for the odor of isovaleric acid.
The evaluation of the masking strength was carried out based on the following six-grade masking scores, based on a comparison with the intensity of odor in a PP container to which only volatilized isovaleric acid had been injected.
0: Masking is not achieved.
1: A very slight masking effect is recognized.
2: A slight masking effect is recognized.
4: Masking is almost achieved.
5: Perfect masking is achieved.

## CC12CCC(CC1)C(C)(C)O2 [1,8-Cineol]
[1]
  Channel suppression ratio (inward current suppression ratio): 46.5%

## CCC(O)COC1CCCCC1C(C)(C)C (centres unmarked) [AMBER CORE]
[1]
  Channel suppression ratio (inward current suppression ratio): 27.1%

## COc1ccc(C=O)cc1 [ANIS ALDEHYDE]
[1]
  Channel suppression ratio (inward current suppression ratio): 89.3%

## O=C(OCc1ccccc1)c1ccccc1 [BENTHYL BENZOATE]
[1]
  Channel suppression ratio (inward current suppression ratio): 10.7%

## O=Cc1ccccc1 [BENZALDEHYDE]
[1]
  Channel suppression ratio (inward current suppression ratio): 95.4%

## CC(C)=CCCC(C)=CC=O [CIT RAL]
[1]
  Channel suppression ratio (inward current suppression ratio): 110.6%

## C1C2CC3CC1CC(C2)C3 [Comparative Example 1, Adamantane]
[1]; evaluation concentration 0.04%
  Inhibition ratio (%) (inward current suppression ratio): 10.9%

## CC12CC3CC(C1)CC(C)(C3)C2 [Comparative Example 2, 1,3-Dimethyladamantane]
[1]; evaluation concentration 0.01%
  Inhibition ratio (%) (inward current suppression ratio): 0%

## C=CC(C)CCCC(C)(C)O (centres unmarked) [DIHYDRO MYRCENOL]
[1]
  Channel suppression ratio (inward current suppression ratio): 109.0%

## OC12CC3CC(CC(C3)C1)C2 [Example 1, 1-Adamantanol]
[1]; evaluation concentration 0.04%
  Inhibition ratio (%) (inward current suppression ratio): 72.4%

## OCCC12CC3CC(CC(C3)C1)C2 [Example 2, 1-Adamantane ethanol]
[1]; evaluation concentration 0.04%
  Inhibition ratio (%) (inward current suppression ratio): 63.4%

## CC12CC3CC(C)(C1)CC(CO)(C3)C2 [Example 5, 3,5-Dimethyladamantane-1-methanol]
[1]; evaluation concentration 0.01%
  Inhibition ratio (%) (inward current suppression ratio): 59.9%
[2]; test solution 50%
  Hexanoic acid odor intensity suppression ratio (%): 28%

## NCC12CC3CC(CC(C3)C1)C2 [Example 6, 1-Adamantane methylamine]
[1]; evaluation concentration 0.01%
  Inhibition ratio (%) (inward current suppression ratio): 54.5%
[2]; test solution 50%
  Hexanoic acid odor intensity suppression ratio (%): 78%

## CC(=O)C12CC3CC(CC(C3)C1)C2 [Example 7, 1-Adamantylmethyl ketone]
[1]; evaluation concentration 0.01%
  Inhibition ratio (%) (inward current suppression ratio): 32%

## O=C(O)CC12CC3CC(CC(C3)C1)C2 [Example 8, 1-Adamantane acetic acid]
[1]; evaluation concentration 0.04%
  Inhibition ratio (%) (inward current suppression ratio): 82.5%
[2]; test solution 25%
  Hexanoic acid odor intensity suppression ratio (%): 32%

## CCOC(=O)CC(=O)C12CC3CC(CC(C3)C1)C2 [Example 9, Ethyl-3-(1-adamantyl)-3-oxopropionate]
[1]; evaluation concentration 0.01%
  Inhibition ratio (%) (inward current suppression ratio): 45.5%

## CC(=O)NC12CC3CC(CC(C3)C1)C2 [Example 10, 1-Acetamidoadamantane]
[1]; evaluation concentration 0.01%
  Inhibition ratio (%) (inward current suppression ratio): 40.6%

## CC(N)C12CC3CC(CC(C3)C1)C2.Cl (centres unmarked) [Example 11]
[1]; evaluation concentration 0.01%
  Inhibition ratio (%) (inward current suppression ratio): 78.9%

## CCOC(=O)C12CCCC1C1CCC2C1 (centres unmarked) [FRUIT ATE]
[1]
  Channel suppression ratio (inward current suppression ratio): 11.6%

## CC(C)=CCC/C(C)=C/CO [GERANIOL]
[1]
  Channel suppression ratio (inward current suppression ratio): 90.1%

## CC(C=O)Cc1ccc(C(C)(C)C)cc1 (centres unmarked) [LILIAL]
[1]
  Channel suppression ratio (inward current suppression ratio): 57.9%

## C=CC(C)(CCC=C(C)C)OC(C)=O (centres unmarked) [LINALYL ACETATE]
[1]
  Channel suppression ratio (inward current suppression ratio): 43.3%

## CC(C)(O)CCCC1=CCC(C=O)CC1 (centres unmarked) [LYRAL]
[1]
  Channel suppression ratio (inward current suppression ratio): 35.7%

## C=CC(C)(O)CCC=C(C)C (centres unmarked) [Linalool]
[1]
  Channel suppression ratio (inward current suppression ratio): 106.5%

## OCCc1ccccc1 [PHENYL ETHYL ALCOHOL]
[1]
  Channel suppression ratio (inward current suppression ratio): 82.6%

## CCOC(=O)C(C)C1CCCCC1 (centres unmarked) [POIRENATE]
[1]
  Channel suppression ratio (inward current suppression ratio): 48.7%

## CC1=CC(C)C(C=O)CC1 (centres unmarked) [TRIPLAL]
[1]
  Channel suppression ratio (inward current suppression ratio): 79.9%

## CC=CC(=O)C1=C(C)CCCC1(C)C [b-DAMASCONE]
[1]
  Channel suppression ratio (inward current suppression ratio): 56.1%
[3]
  Masking score: 2.4

## CC/C=C\CCO [cis-3-HEXENOL]
[1]
  Channel suppression ratio (inward current suppression ratio): 78.7%

## CC(=O)OCCC(C)C [iso-AMYL ACETATE]
[1]
  Channel suppression ratio (inward current suppression ratio): 92.0%

## CC(=O)OC1CCCCC1C(C)(C)C (centres unmarked) [o-t-B.C.H.A]
[1]
  Channel suppression ratio (inward current suppression ratio): 23.8%
